# From PMC3454513 (Nature structural & molecular biology, 2012)
# B1: PHF20 Tudor2 (amino acids 84–147), disulfide cross-linked homodimer (domain or fragment, human, UniProt Q9BVI0 84-147, looked up)
# chain: SSEFQINEQVLACWSDCRFYPAKVTAVNKDGTYTVKFYDGVVQTVKHIHVKAFSKDQNIVGNAR
# modifications: disulfide bonds between Cys96 and Cys100 of subunit A and Cys100 and Cys96 of subunit B
# Experiments:
# p53 = experiment: Immunoblot of p53 phosphorylated at Ser15, HCT 116 cells; assay type: cell-based, human; conditions: 10 μM doxorubicin or 100 μM etoposide for 4 h
# [1] = tested on: PHF20 Tudor2 and Tudor1-2; assay type: binding, human; conditions: peptide array (Supplementary Fig. 1)
# mass spectrometry = biological target: the molecule itself; experiment: mass spectrometry
Molecule,interaction with PHF20 among the four known methylated forms of p53 [1],also measured
COc1cccc2c1C(=O)c1c(O)c3c(c(O)c1C2=O)C[C@@](O)(C(=O)CO)C[C@@H]3O[C@H]1C[C@H](N)[C@H](O)[C@H](C)O1 [doxorubicin],,phosphorylation of p53 at Ser15 (p53): induced phosphorylation of p53 at Ser15
p53K370me2: Cy3-labeled 18-amino acid p53 peptide dimethylated at Lys370,strongest interaction,
p53K382me2: Cy3-labeled 18-amino acid p53 peptide dimethylated at Lys382,strongest interaction,
B1,,stoichiometry N (mass spectrometry): 2
